Data on eleven compounds can be found in patent US10064417B2, “Milk filtration devices and methods for filtering” (Janssen Pharmaceutica NV, priority 2015, dated 2018).

Where two headings read alike, the source gives them in different places.

For data set [1] the following is noted: cited from earlier work.
The conditions of data set [2]: cited from earlier work. The source holds these as a separate data set.
Data set [3] can be described thus: Fraction of ketamine in the neutral state at various pHs. It counts as physicochemical. The note with it: mother's milk, pH about 7.2-7.4, estimated from Table I.
The conditions of data set [4]: cited from earlier work. This is another data set of the same source.
The conditions of data set [5]: cited from earlier work. The source holds these as a separate data set.
Data set [6] deals with orosomucoid. The note with it: human blood; cited from earlier work.

Take `Cc1ncc(CO)c(CO)c1O` [Pyridoxine]: the pKa in data set [1] was 8.7. As for `Cc1cc2nc3c(=O)[nH]c(=O)nc-3n(C[C@H](O)[C@H](O)[C@H](O)CO)c2cc1C` [Riboflavin], in data set [2], the lipophilicity (Log P) is reported as −0.92. As for `N=C(N)NCCC[C@H](N)C(=O)O` [Arginine], the “Log P” value in data set [2] is −1.7. `CNC1(c2ccccc2Cl)CCCCC1=O` (stereo not shown) [Ketamine]: in data set [3], the “neutral fraction of ketamine in milk” value is on record as 30-40%. The “Fraction of neutral ketamine” value in data set [4] (pH 7.1) is 28.0%; in data set [4] (pH 7.4), 44.3%; in data set [4] (pH 7.5), 50.0%. As for `NCCCC[C@H](N)C(=O)O` [Lysine], in data set [2], the “Log P” value is −3.2. As for `CNCCC(Oc1ccc(C(F)(F)F)cc1)c1ccccc1` (stereo not shown) [fluoxetine, reference compound], the pKa entry in data set [1] (room temperature) is “about 10.3”. In the case of `O=C(O)[C@@H]1CCCN1` [Proline], the “Log P” value in data set [2] is −2.6.

For the compound `CN[C@H]1CC[C@@H](c2ccc(Cl)c(Cl)c2)c2ccccc21` [Sertraline], the “bound in mother's milk” value in data set [5] is “about 80%”. The bound to orosomucoid in data set [6] is recorded as 95%. In data set [2], the “Log P” value was 5.10. On to `N[C@@H](Cc1c[nH]cn1)C(=O)O` [Histidine], for which, in data set [1], the pKa is 9.1.

Consider `NCCS(=O)(=O)O` [Taurine], for which the lipophilicity (Log P) in data set [2] is reported as −1.9. The pKa in data set [1] is reported as 9.0; in data set [1] (room temperature) it was “about 9”. Take `Cc1ncc(C[n+]2csc(CCO)c2C)c(N)n1` [Thiamine]: the “Log P” value in data set [2] is −3.1; in data set [2] (listed as thiamine) it was around −3.
